Source: article PMC8834866, “2-Acetamido-2-deoxy-D-glucono-1,5-lactone Sulfonylhydrazones: Synthesis and Evaluation as Inhibitors of Human OGA and HexB Enzymes” (International Journal of Molecular Sciences, 2022)
“And” between values parts separate entries of the source, which are not always exact repeats. Identical values can stand only once.

Legend:
hOGA = molecular target: T1, hOGA (Homo sapiens, UniProt O60502); assay: hOGA inhibition, 4-MU-GlcNAc fluorescent substrate, Dixon plots (competitive model); format: biochemical; conditions: for Ki(hHexB)/Ki(hOGA): ratio defines selectivity towards hOGA; for Ki: recombinant hOGA, 4-MU-GlcNAc, pH 7.5, 37 °C
T1 construct: The gene construct encoding the full-length human OGA fused to N-terminal His6-tag; His6 (N); made in house
T1 sequence (O60502 1-916): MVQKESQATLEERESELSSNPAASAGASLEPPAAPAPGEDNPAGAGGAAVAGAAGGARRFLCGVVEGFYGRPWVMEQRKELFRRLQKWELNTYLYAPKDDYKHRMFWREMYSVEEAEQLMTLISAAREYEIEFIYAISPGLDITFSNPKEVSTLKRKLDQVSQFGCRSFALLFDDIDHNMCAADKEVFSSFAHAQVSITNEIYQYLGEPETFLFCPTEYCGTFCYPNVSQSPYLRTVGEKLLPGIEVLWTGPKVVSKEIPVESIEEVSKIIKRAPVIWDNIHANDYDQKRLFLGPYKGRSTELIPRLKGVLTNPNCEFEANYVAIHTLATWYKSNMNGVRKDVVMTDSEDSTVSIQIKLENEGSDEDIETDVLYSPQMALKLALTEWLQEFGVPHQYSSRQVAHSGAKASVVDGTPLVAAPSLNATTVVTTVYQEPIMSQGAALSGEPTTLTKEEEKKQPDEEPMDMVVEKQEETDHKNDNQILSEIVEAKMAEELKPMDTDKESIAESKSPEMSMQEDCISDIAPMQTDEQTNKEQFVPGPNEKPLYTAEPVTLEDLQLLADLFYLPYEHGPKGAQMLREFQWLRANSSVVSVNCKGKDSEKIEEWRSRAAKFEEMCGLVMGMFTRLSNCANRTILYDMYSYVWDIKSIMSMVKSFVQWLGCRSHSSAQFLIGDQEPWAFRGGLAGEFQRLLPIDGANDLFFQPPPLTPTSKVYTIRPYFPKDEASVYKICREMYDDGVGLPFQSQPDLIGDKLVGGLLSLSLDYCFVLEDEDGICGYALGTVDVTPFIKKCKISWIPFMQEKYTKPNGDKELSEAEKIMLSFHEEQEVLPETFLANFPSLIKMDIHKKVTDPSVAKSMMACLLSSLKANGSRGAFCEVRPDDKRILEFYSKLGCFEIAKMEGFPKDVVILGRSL
Procedure: (§1) The inhibitory potency of compounds 5a–f was evaluated against recombinant hOGA and hHexB enzymes. The enzymes were prepared and purified as described previously. For inhibition of hOGA, fluorescent 4-MU-GlcNAc was used as the substrate. […] In the case of inhibition of hHexB, Michaelis–Menten kinetics were evaluated using pNP-GlcNAc as a colorimetric substrate. Inhibition constants (Ki) were determined by nonlinear regression analyses by employing the competitive inhibition model (cf. the Experimental section and Supplementary Materials).
(§2) The detailed protocol for the expression of hOGA and the subsequent purification procedure of the recombinant protein have been described in our previous work. The gene construct encoding the full-length human OGA fused to N-terminal His6-tag was kindly provided by Prof. D. Vocadlo (SFU, Burnaby, BC, Canada). Human β-N-acetylhexosaminidase B (hHexB) was expressed in Pichia pastoris, and the extracellularly produced enzyme was isolated according to the procedure described by Krejzová et al..
The inhibitory potency of compounds 5a–f was evaluated against recombinant enzymes hOGA and hHexB. In the case of hOGA inhibition, 4-MU-GlcNAc was used as a substrate at three concentrations (7 µM, 12 µM, and 25 µM) in the reaction mixtures containing 50 mM potassium phosphate buffer (pH 7.5), an inhibitor 5a–f in a final concentration of 0 to 750 nM, and 3 nM hOGA. In all cases, the enzyme and the inhibitors were preincubated at 37 °C, then the reaction was initiated by the addition of the substrate. All reactions were carried out in a fluorescence cuvette (Hellma Analytics, Müllheim, Germany), held in the thermostat cell holder of a Jasco FP-8200 fluorescence spectrophotometer (Easton, MD, USA) equipped with a Xe lamp light source. The excitation of the reactions was performed at […] and emission was detected at […] every 10 s for 10 min. All measurements were performed in triplicates. Initial velocities were determined and the reciprocal of initial velocities was plotted against inhibitor concentrations. The inhibitory mode of the compounds on hOGA was assessed by the Cornish–Bowden method, which involves the plotting of [S]/v0 vs. inhibitor concentrations. […] Inhibition constants (Ki) were determined according to the competitive model of the Dixon method by plotting the reciprocal of initial velocities vs. inhibitor concentrations. The intersection point of the linearly fitted lines gave Ki in nM.

HexA/B = molecular target: HexA/B; set-up: method as in PMID 34186233; conditions: enzyme contains two predominant isozymes, Hex A and Hex B; cited from earlier work
OGA = conditions: cited from earlier work
hHexB = molecular target: T2, hHexB (Homo sapiens, UniProt P07686); assay: hHexB inhibition, pNP-GlcNAc colorimetric substrate, Michaelis–Menten kinetics; format: biochemical; conditions: recombinant hHexB, pH 5.0, 35 °C
T2 construct: made in house; host or cells: Pichia pastoris
T2 sequence (P07686 122-556): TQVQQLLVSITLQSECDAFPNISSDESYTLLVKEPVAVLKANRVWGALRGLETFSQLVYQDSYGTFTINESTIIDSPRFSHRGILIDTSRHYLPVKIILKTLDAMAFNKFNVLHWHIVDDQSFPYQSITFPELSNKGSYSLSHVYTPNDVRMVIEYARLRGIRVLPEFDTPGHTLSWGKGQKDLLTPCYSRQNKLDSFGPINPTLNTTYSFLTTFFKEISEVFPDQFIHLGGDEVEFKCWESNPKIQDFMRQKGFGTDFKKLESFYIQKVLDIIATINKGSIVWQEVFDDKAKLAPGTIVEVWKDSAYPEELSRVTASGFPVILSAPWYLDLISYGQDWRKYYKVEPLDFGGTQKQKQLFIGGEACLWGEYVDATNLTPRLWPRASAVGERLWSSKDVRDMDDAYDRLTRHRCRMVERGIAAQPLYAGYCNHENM
Procedure: as §1, §2
In the case of hHexB inhibition, Michaelis–Menten kinetics were evaluated using pNP-GlcNAc as a substrate. The kinetic reactions took place in Eppendorf tubes in a final volume of 400 μL containing 24 nM HexB, pNP-GlcNAc substrate in the range of 0.1–3 mM, and various inhibitor concentrations ranging from 0 to 300 nM in 50 mM citrate-phosphate buffer, pH 5.0. The reactions were incubated at 35 °C and then 50 μL samples were taken every 60 s. Samples were mixed with a quenching solution of 150 μL 0.1 M Na2CO3 and the absorbance of the solutions was measured at 420 nm by a Tecan Sunrise plate reader (Männedorf, Switzerland). All measurements were performed in triplicates. Initial velocities were determined from the data points by linear fit, and then nonlinear regression analyses were performed using the competitive inhibition model to calculate Ki values. GraphPad Prism software was used for the calculations.

HexB = conditions: cited from earlier work

| Compound | Ki(hHexB)/Ki(hOGA) (hOGA) | Ki (HexA/B) | Ki (OGA) | Ki (hOGA) | Ki (hHexB) | melting point | Ki (HexB) |
| --- | --- | --- | --- | --- | --- | --- | --- |
| CC(=O)N[C@H]1C(=NNC(=O)Nc2ccc3ccccc3c2)O[C@H](CO)[C@@H](O)[C@@H]1O [2-acetamido-2-deoxy-D-glucono-1,5-lactone 4-(2-naphthyl)-semicarbazone] | 1.3 | 47 nM | 36 nM |  |  |  |  |
| CC(=O)N[C@H]1C(=NNS(=O)(=O)c2ccc(C)cc2)O[C@H](CO)[C@@H](O)[C@@H]1O [5a, 2-Acetamido-2-deoxy-D-glucono-1,5-lactone p-Toluenesulfonylhydrazone] | 0.27 |  |  | 78 ± 1 nM | 21 ± 2 nM | 165 to 166 °C |  |
| CC(=O)N[C@H]1C(=NNS(=O)(=O)c2ccc(C(F)(F)F)cc2)O[C@H](CO)[C@@H](O)[C@@H]1O [5b, 2-Acetamido-2-deoxy-D-glucono-1,5-lactone p-Trifluoromethylbenzenesulfonylhydrazone] | 0.21 |  |  | 230 ± 17 nM | 48 ± 4 nM | 175 to 176 °C (dec.) |  |
| CC(=O)N[C@H]1C(=NNS(=O)(=O)c2ccc(F)cc2)O[C@H](CO)[C@@H](O)[C@@H]1O [5c, 2-Acetamido-2-deoxy-D-glucono-1,5-lactone p-Fluorobenzenesulfonylhydrazone] |  |  |  | 95 ± 11 nM | 45 ± 3 nM | 175 to 177 °C |  |
| CC(=O)N[C@H]1C(=NNS(=O)(=O)c2ccc(Cl)cc2)O[C@H](CO)[C@@H](O)[C@@H]1O [5d, 2-Acetamido-2-deoxy-D-glucono-1,5-lactone p-Chlorobenzenesulfonylhydrazone] | 0.56 |  |  | 70 ± 3 nM | 39 ± 2 nM | 180 to 182 °C (dec.) |  |
| CC(=O)N[C@H]1C(=NNS(=O)(=O)c2ccc3ccccc3c2)O[C@H](CO)[C@@H](O)[C@@H]1O [5e, 2-Acetamido-2-deoxy-D-glucono-1,5-lactone 2-Naphthalenesulfonylhydrazone] | 1 |  |  | ~30 nM and 30 nM | 30 ± 3 nM | 172 to 173 °C |  |
| CC(=O)N[C@H]1/C(=N/NS(=O)(=O)c2cccc3ccccc23)O[C@H](CO)[C@@H](O)[C@@H]1O [5f, 2-Acetamido-2-deoxy-D-glucono-1,5-lactone 1-Naphthalenesulfonylhydrazone] | 0.25 |  |  | 27 ± 7 nM | 6.8 ± 1.8 nM | 145 to 147 °C |  |
| CC(=O)N[C@H]1/C(=N/OC(=O)Nc2ccc(Br)cc2)O[C@H](CO)[C@@H](O)[C@@H]1O [I (4-Br-C6H4-)] |  |  | 56 nM |  |  |  | 47 nM |
| CC(=O)N[C@H]1/C(=N/OC(=O)Nc2ccc(C)cc2)O[C@H](CO)[C@@H](O)[C@@H]1O [I (4-Me-C6H4-)] |  |  | 28 nM |  |  |  | 21 nM |
| CC(=O)N[C@H]1/C(=N/NC(=O)Nc2ccc(Cl)cc2)O[C@H](CO)[C@@H](O)[C@@H]1O [II (4-Cl-C6H4-)] |  | 170 nM | 83 nM |  |  |  |  |
| CC(=O)N[C@H]1/C(=N/NC(=O)Nc2ccc(C)cc2)O[C@H](CO)[C@@H](O)[C@@H]1O [II (4-Me-C6H4-)] |  | 332 nM | 155 nM |  |  |  |  |
| CC(=O)N[C@H]1/C(=N/NC(=O)Nc2ccccc2)O[C@H](CO)[C@@H](O)[C@@H]1O [II (Ph)] |  | 205 nM | 190 nM |  |  |  |  |
| CC(=O)N[C@H]1/C(=N/OC(=O)Nc2ccccc2)O[C@H](CO)[C@@H](O)[C@@H]1O [PUGNAc] | 0.8 |  | 46 nM |  |  |  | 36 nM |
